Laboratory results: ChEMBL document CHEMBL1201862, “PubChem BioAssay data set” (2004)
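Five compound concentrations were applied to cells in 96-well plates for 48 hours; endpoints were derived by simple linear interpolation of the resulting dose-response curve. At the GI50, growth is halved.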 Active and inactive are the calls of the source. Rule as the data show it: active = GI50 up to about 1.1 µM and inactive = higher.

Columns and labels:
Assay in all cases: NCI tumour cell line growth inhibition, 48 h
DU-145 = tested on: DU-145
SF-539 = tested on: SF-539
MDA-MB-435 = tested on: MDA-MB-435
HOP-92 = tested on: HOP-92
MDA-MB-231 = tested on: MDA-MB-231
SK-MEL-28 = tested on: SK-MEL-28
PC-3 = tested on: PC-3
SF-295 = tested on: SF-295
SR = tested on: SR
HCT-116 = tested on: HCT-116
NCI-H460 = tested on: NCI-H460
NCI-H226 = tested on: NCI-H226
Hs-578T = tested on: Hs-578T
U-251 = tested on: U-251
NCI/ADR-RES = tested on: NCI/ADR-RES

Measured: GI50

Sc1ncnc2c1ncn2Cc1ccco1
inactive: DU-145 > 100 µM | SF-539 > 100 µM | MDA-MB-435 > 100 µM | HOP-92 > 100 µM | MDA-MB-231 > 100 µM | SK-MEL-28 > 100 µM | PC-3 > 100 µM | SF-295 > 100 µM | SR > 100 µM | HCT-116 > 100 µM | NCI-H460 > 100 µM | NCI-H226 > 100 µM | Hs-578T > 100 µM | U-251 > 100 µM | NCI/ADR-RES > 100 µM

c1ccc(SC(Sc2ccccc2)c2ccc3c(c2)OCO3)cc1
inactive: DU-145 > 100 µM | MDA-MB-435 > 100 µM | HOP-92 16.3 µM | MDA-MB-231 > 100 µM | SK-MEL-28 > 100 µM | PC-3 > 100 µM | SF-295 > 100 µM | SR > 100 µM | HCT-116 > 100 µM | NCI-H460 > 100 µM | NCI-H226 23.6 µM | Hs-578T > 100 µM | U-251 > 100 µM | NCI/ADR-RES > 100 µM

OC1(C(O)(c2ccc(-c3ccccc3)cc2)c2ccc(-c3ccccc3)cc2)CCCCC1
inactive: DU-145 > 100 µM | SF-539 > 100 µM | MDA-MB-435 > 100 µM | HOP-92 > 100 µM | MDA-MB-231 > 100 µM | SK-MEL-28 > 100 µM | PC-3 > 100 µM | SF-295 > 100 µM | SR 28.6 µM | HCT-116 > 100 µM | NCI-H460 44 µM | NCI-H226 > 100 µM | Hs-578T > 100 µM | U-251 > 100 µM | NCI/ADR-RES > 100 µM

Nc1nc(N)nc(CC(=O)O)n1
inactive: DU-145 > 100 µM | SF-539 > 100 µM | MDA-MB-435 > 100 µM | HOP-92 > 100 µM | MDA-MB-231 > 100 µM | SK-MEL-28 > 100 µM | PC-3 > 100 µM | SF-295 > 100 µM | SR > 100 µM | HCT-116 > 100 µM | NCI-H460 > 100 µM | NCI-H226 > 100 µM | Hs-578T > 100 µM | U-251 > 100 µM | NCI/ADR-RES > 100 µM

CN(C)c1ccc(/C=C2\Oc3ccccc3C2=O)cc1
inactive: DU-145 > 100 µM | SF-539 > 100 µM | MDA-MB-435 56.8 µM | MDA-MB-231 > 100 µM | SK-MEL-28 > 100 µM | PC-3 > 100 µM | SF-295 > 100 µM | SR 31 µM | HCT-116 > 100 µM | NCI-H460 > 100 µM | NCI-H226 > 100 µM | Hs-578T 22.5 µM | U-251 > 100 µM | NCI/ADR-RES 68.5 µM

N#C/C(=C1/c2cc([N+](=O)[O-])ccc2-c2c1cc([N+](=O)[O-])cc2[N+](=O)[O-])N1CCCCC1
inactive: DU-145 38.5 µM | MDA-MB-435 > 100 µM | MDA-MB-231 > 100 µM | SK-MEL-28 > 100 µM | PC-3 > 100 µM | SF-295 > 100 µM | SR 1.34 µM | HCT-116 27.3 µM | NCI-H226 > 100 µM | Hs-578T 43.7 µM | U-251 71.8 µM | NCI/ADR-RES 51.3 µM

Oc1ccc(/C=N/c2ccccc2O)cc1
inactive: DU-145 17 µM | SF-539 71.3 µM | MDA-MB-435 16.9 µM | HOP-92 > 100 µM | MDA-MB-231 51.1 µM | SK-MEL-28 > 100 µM | PC-3 34.1 µM | SF-295 52.2 µM | SR 48.6 µM | HCT-116 50.1 µM | NCI-H460 38.9 µM | NCI-H226 94.6 µM | Hs-578T 37.2 µM | U-251 31.3 µM | NCI/ADR-RES 75 µM

C=CC(C)CCC(C/C=C(\C)CCCC(C)C)C(=C)CCCC(C)C (configuration not stated)
inactive: DU-145 > 100 µM | SF-539 > 100 µM | MDA-MB-435 > 100 µM | HOP-92 > 100 µM | MDA-MB-231 > 100 µM | SK-MEL-28 > 100 µM | PC-3 > 100 µM | SF-295 > 100 µM | SR > 100 µM | HCT-116 > 100 µM | NCI-H460 > 100 µM | NCI-H226 > 100 µM | Hs-578T > 100 µM | U-251 > 100 µM | NCI/ADR-RES > 100 µM

OC1C2CN3CCN(C2)CC1(c1ccccc1)C3 (configuration not stated)
inactive: DU-145 > 100 µM | SF-539 > 100 µM | MDA-MB-435 > 100 µM | MDA-MB-231 > 100 µM | SK-MEL-28 > 100 µM | PC-3 > 100 µM | SF-295 > 100 µM | SR > 100 µM | HCT-116 > 100 µM | NCI-H226 > 100 µM | Hs-578T > 100 µM | U-251 > 100 µM | NCI/ADR-RES > 100 µM

COC(=O)C(=O)Nc1cc2c3c(c1)Oc1cccc4c1C3(C)c1c(cccc1O2)O4
inactive: DU-145 > 44.7 µM | SF-539 33 µM | MDA-MB-435 > 100 µM | HOP-92 72.6 µM | MDA-MB-231 > 100 µM | SK-MEL-28 > 100 µM | PC-3 97.1 µM | SF-295 > 100 µM | SR 2.93 µM | HCT-116 > 75.2 µM | NCI-H460 > 100 µM | NCI-H226 4.75 µM | Hs-578T > 83.4 µM | U-251 > 100 µM | NCI/ADR-RES 6.56 µM

CC(C)(C)O/N=C/c1cc(NC(=S)c2ccsc2)ccc1Cl
inactive: DU-145 5.37 µM | SF-539 18 µM | MDA-MB-435 14.6 µM | HOP-92 19.1 µM | MDA-MB-231 16.4 µM | SK-MEL-28 16.7 µM | PC-3 13 µM | SF-295 11.6 µM | SR 3.36 µM | HCT-116 11.4 µM | NCI-H226 14 µM | Hs-578T 23.3 µM | U-251 15.7 µM | NCI/ADR-RES 11.8 µM

COc1ccc(/C=C/c2cc(O)cc(OC3OC(CO)C(O)C(O)C3O)c2)cc1O (configuration not stated)
inactive: DU-145 37.8 µM | SF-539 57.1 µM | MDA-MB-435 82.4 µM | HOP-92 > 100 µM | MDA-MB-231 > 100 µM | SK-MEL-28 > 100 µM | PC-3 49.2 µM | SF-295 51.8 µM | SR > 100 µM | HCT-116 68.7 µM | NCI-H460 > 100 µM | NCI-H226 > 100 µM | Hs-578T > 100 µM | U-251 > 100 µM | NCI/ADR-RES 94 µM

Cc1ccc2c(c1)C(=O)C1(C2)Cc2ccc(C)cc2C1=O
inactive: DU-145 > 100 µM | SF-539 > 100 µM | MDA-MB-435 > 100 µM | HOP-92 > 100 µM | MDA-MB-231 > 100 µM | PC-3 > 100 µM | SF-295 > 100 µM | SR > 100 µM | HCT-116 > 100 µM | NCI-H460 > 100 µM | Hs-578T > 100 µM | U-251 71.8 µM | NCI/ADR-RES > 100 µM

COc1cc(OC)cc(Oc2nc3ccc(C(F)(F)F)cc3nc2-c2ccccc2)c1
inactive: DU-145 > 100 µM | SF-539 > 100 µM | MDA-MB-435 > 100 µM | HOP-92 > 100 µM | MDA-MB-231 > 100 µM | SK-MEL-28 > 100 µM | PC-3 > 100 µM | SF-295 > 100 µM | SR > 100 µM | HCT-116 > 100 µM | NCI-H460 > 100 µM | NCI-H226 > 100 µM | Hs-578T > 100 µM | U-251 > 100 µM | NCI/ADR-RES > 100 µM

C=C1c2nc3ccccc3n2C=C(c2ccc(OC)cc2)N1c1ccccc1
inactive: DU-145 28.6 µM | SF-539 6.67 µM | MDA-MB-435 1.17 µM | HOP-92 30.2 µM | MDA-MB-231 11.1 µM | SK-MEL-28 29.6 µM | PC-3 9.12 µM | SF-295 3.44 µM | SR 1.96 µM | HCT-116 3.95 µM | NCI-H460 3.94 µM | NCI-H226 4.12 µM | Hs-578T 14.4 µM | U-251 5.31 µM | NCI/ADR-RES 2.34 µM

COc1ccc(N2C(=O)C(Cl)C2c2cc3cc(Br)ccc3nc2Cl)cc1 (configuration not stated)
inactive: DU-145 7.46 µM | SF-539 5.07 µM | MDA-MB-435 4.71 µM | HOP-92 8.38 µM | MDA-MB-231 4.57 µM | SK-MEL-28 7.28 µM | PC-3 7.13 µM | SF-295 11.9 µM | SR 1.33 µM | HCT-116 4.68 µM | NCI-H460 5.33 µM | NCI-H226 5.62 µM | Hs-578T 11.5 µM | NCI/ADR-RES 5.41 µM

CC1=CC2(C)C=C[C@@H]1C(=O)[C@@]1(C)CC[C@@](O)(C(C)C)[C@H]1CC2
inactive: DU-145 28.9 µM | SF-539 18.9 µM | MDA-MB-435 20.3 µM | HOP-92 14.4 µM | MDA-MB-231 17.5 µM | SK-MEL-28 20.9 µM | PC-3 24.2 µM | SF-295 16.7 µM | HCT-116 17.3 µM | NCI-H460 18.4 µM | NCI-H226 23.4 µM | Hs-578T 25.4 µM | U-251 18.1 µM | NCI/ADR-RES 20.2 µM

CC(=O)OCCOCn1cnc2c(Cl)nc(Cl)nc21
inactive: DU-145 19.5 µM | SF-539 > 10 µM | MDA-MB-435 17.3 µM | HOP-92 1.67 µM | MDA-MB-231 15.3 µM | PC-3 17 µM | SF-295 > 10 µM | SR 3.87 µM | HCT-116 18.2 µM | NCI-H460 18.5 µM | NCI-H226 19.2 µM | Hs-578T 18.7 µM | U-251 15 µM | NCI/ADR-RES 24.1 µM

CC(=O)Oc1cc(/C=C/c2ccc(O)cc2)cc(OC(C)=O)c1
inactive: DU-145 27.2 µM | SF-539 12.8 µM | MDA-MB-435 28.1 µM | HOP-92 25 µM | MDA-MB-231 25.5 µM | SK-MEL-28 66.5 µM | PC-3 21.5 µM | SF-295 28.8 µM | SR 17.3 µM | HCT-116 35.6 µM | NCI-H460 33.9 µM | NCI-H226 24.7 µM | Hs-578T 58.5 µM | U-251 29.9 µM | NCI/ADR-RES 16.3 µM
